PubChem BioAssay (NCI)
Values joined by “and” are separate entries in the source; they are usually repeats but may differ in a detail not shown here. Equal entries are not always repeated.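 Growth conditions: 96-well plates. Treatment: test compound, 48 hours, 5 concentrations. Analysis: linear interpolation between bracketing concentrations; unreached endpoints set to highest concentration. GI50: concentration for 50% inhibition of growth. At the TGI there is no net growth.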

Assays:
Assay in all cases: NCI anticancer screen, dose series, 48 h
IGROV1 ovarian = tested on: IGROV1 ovarian
SF-295 CNS = tested on: SF-295 CNS
OVCAR-5 ovarian = tested on: OVCAR-5 ovarian
HCT-116 colon = tested on: HCT-116 colon
RXF 393 renal = tested on: RXF 393 renal
HT29 colon = tested on: HT29 colon
RPMI-8226 leukemia = tested on: RPMI-8226 leukemia
UACC-257 melanoma = tested on: UACC-257 melanoma
U251 CNS = tested on: U251 CNS
HCT-15 colon = tested on: HCT-15 colon
UACC-62 melanoma = tested on: UACC-62 melanoma

Row | SMILES | TGI (IGROV1 ovarian) [µM] | TGI (SF-295 CNS) [µM] | TGI (OVCAR-5 ovarian) [µM] | TGI (HCT-116 colon) [µM] | TGI (RXF 393 renal) [µM] | GI50 (HT29 colon) | TGI (HT29 colon) [µM] | GI50 (RPMI-8226 leukemia) | TGI (RPMI-8226 leukemia) | TGI (UACC-257 melanoma) [µM] | TGI (U251 CNS) [µM] | TGI (HCT-15 colon) [µM] | TGI (UACC-62 melanoma) [µM] | GI50 (HCT-15 colon) [µM] | GI50 (OVCAR-5 ovarian) [µM] | GI50 (HCT-116 colon) [µM] | GI50 (RXF 393 renal) [µM] | GI50 (U251 CNS) [µM] | GI50 (IGROV1 ovarian) [µM] | GI50 (UACC-62 melanoma) [µM]
1 | COC(=O)[C@@H]1CC(C(C[N+](=O)[O-])c2ccc(O[Si](C)(C)C(C)(C)C)cc2)C(=O)N1C(=O)OC(C)(C)C (stereo partly specified) | > 100 | > 100 | > 100 | > 100 | > 100 | > 100 µM and 47.8 µM | > 100 | 3.2 µM and 23.7 µM | 72.4 µM and 95 µM | > 100 | > 100 | – | – | – | – | – | – | – | – | –
2 | O=C1C(Cl)=C(Nc2ccc(S(=O)(=O)O)cc2)C(=O)c2ccccc21 | > 100 | 82.5 | > 100 | > 100 | 37.6 | – | > 100 | – | 70.1 µM | > 100 | > 100 | > 100 | > 100 | – | – | – | – | – | – | –
3 | O=C(Nc1nc2ccc([N+](=O)[O-])cc2s1)C(=O)C(C(=O)c1ccccc1F)C1OC(=O)c2ccccc21 (stereo unspecified) | > 100 | > 100 | > 100 | > 100 | – | – | > 100 | – | 70.6 µM | > 100 | 41.3 | > 100 | > 100 | – | – | – | – | – | – | –
4 | Cc1cc(S(=O)(=O)Nc2nc3ccccc3nc2-c2cccc([N+](=O)[O-])c2)c(S)cc1Cl | 30.4 | 59.8 | 88.4 | 35.2 | 74.4 | – | 34.2 | – | 64.7 µM | 36 | 38.6 | > 100 | 31.8 | – | – | – | – | – | – | –
5 | COc1c(Br)cc2c(c1OC)C(Br)CCC(Br)(Br)C2=O (stereo unspecified) | 5.76 | 6.77 | 13.6 | 0.853 | 1.82 | – | 3.71 | – | 6.06 µM | 14.7 | 5.91 | 1.63 | 13.1 | – | – | – | – | – | – | –
6 | CO/N=C(/C)c1ccc(NC(=O)CSc2nnc(-c3ccncc3)n2-c2ccccc2)cc1 | – | – | > 100 | > 100 | 4.93 | > 100 µM | > 100 | > 100 µM | > 100 µM | – | > 100 | > 100 | – | > 100 | > 100 | 3.43 | 2.24 | 3.22 | – | –
7 | CN(C)CCCN1c2ccccc2Sc2ccc3ccccc3c21 | 23.4 | 26.3 | 24.7 | 22.9 | 3.92 | – | 12.5 | – | 7.45 µM | 4.1 | 20 | 19.2 | 9.62 | – | – | – | – | – | – | –
8 | O=C1OC2(CC1C1(O)C3CC4CC(C3)CC1C4)C1CC3CC(C1)CC2C3 (stereo unspecified) | > 100 | 73.1 | – | > 100 | > 100 | – | > 100 | – | – | > 100 | – | > 100 | > 100 | – | – | – | – | – | – | –
9 | C=CC1(NC(=O)c2ccccc2)CCC(C(C)(C)C)CC1 (stereo unspecified) | > 100 | 74 | > 100 | 55.1 | > 85.8 | – | 55 | – | > 100 µM | > 77 | 53.8 | > 85 | 97.8 | – | – | – | – | – | – | –
10 | O=C(c1ccccc1)c1ccc2nc(-c3c(Cl)c(Cl)c(Cl)c(Cl)c3C(=O)N/N=C/c3ccc(Cl)cc3)[nH]c2c1 | > 100 | > 100 | > 100 | > 100 | 85.9 | – | > 100 | – | 51.3 µM | > 100 | > 100 | > 100 | – | – | – | – | – | – | – | –
11 | CC(=O)Oc1cc2c(cc1OC(C)=O)OCC(c1ccccc1)C2 (stereo unspecified) | 74.1 | 49.8 | 61.7 | 57.4 | 30 | – | 98.3 | – | 54.5 µM | 29.2 | 29.5 | 56.4 | 53.3 | – | – | – | – | – | – | –
12 | CCN(CC)c1ccc2cc(C(=O)Nc3ccc4[nH]c(C(=O)N5C[C@@H](CCl)c6c5cc(OC(=O)Nc5ccccc5)c5[nH]cc(C)c65)cc4c3)oc2c1 | > 1000 | – | 633 | 378 | – | – | > 1000 | 681 µM | > 1000 µM | > 1000 | 235 | > 1000 | – | 539 | 264 | – | 202 | 92.7 | 914 | 44.5
13 | OCCNCCN1CCN(CCCN2c3ccccc3Sc3ccc(C(F)(F)F)cc32)CC1 | > 100 | 34.9 | 43.5 | 31.7 | 47.5 | – | 28.3 | – | > 100 µM | 34.6 | 35.8 | 37.3 | 41.2 | – | – | – | – | – | – | –
14 | O=c1ssc(=Nc2ccccc2)n1-c1ccccc1 | – | > 100 | > 100 | – | – | – | > 100 | – | 57.5 µM | 38.9 | 50 | 35 | > 100 | – | – | – | – | – | – | –
15 | N#C[C@H](OC1OC(COC2OC(CO)C(O)C(O)C2O)C(O)C(O)C1O)c1ccccc1 (stereo partly specified) | > 250 | > 250 | > 250 | > 250 | > 250 | – | > 250 | – | > 250 µM | > 250 | > 250 | > 250 | > 250 | – | – | – | – | – | – | –
16 | CCCc1c(-c2ccccc2)[nH]c2ccccc2c1=O | > 100 | > 100 | > 100 | 72.8 | > 100 | – | 50.3 | – | > 100 µM | > 100 | > 100 | > 100 | > 100 | – | – | – | – | – | – | –
17 | O=C(CCl)NNC1=Nc2ccc(Cl)cc2SC1 | 3.58 | 28.4 | 4.16 | 3.2 | 3.44 | – | 3.4 | – | 5.01 µM | 7.53 | 4.28 | 3.97 | 5.46 | – | – | – | – | – | – | –
